Laboratory results: PubChem BioAssay (NCI)
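GI50 = concentration required for 50% inhibition of growth. Definition used: TGI = concentration required for complete inhibition of growth.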

Key:
Test in all cases: NCI-60 cell line screen, 384-well format
[1] = tested on: 786-0 renal
[2] = tested on: M14 melanoma
[3] = tested on: HOP-62 NSCLC
[4] = tested on: PC-3 prostate
[5] = tested on: BT-549 breast
[6] = tested on: MDA-MB-435 melanoma
[7] = tested on: SNB-75 CNS
[8] = tested on: OVCAR-5 ovarian
[9] = tested on: LOX IMVI melanoma
[10] = tested on: K-562 leukemia
[11] = tested on: OVCAR-8 ovarian
[12] = tested on: NCI-H460 NSCLC
[13] = tested on: IGROV1 ovarian
[14] = tested on: CAKI-1 renal
[15] = tested on: UACC-62 melanoma
[16] = tested on: UO-31 renal
[17] = tested on: HCT-15 colon
[18] = tested on: HCT-116 colon
[19] = tested on: U251 glioblastoma
[20] = tested on: SR leukemia
[21] = tested on: NCI-H226 lung
[22] = tested on: A498 renal
[23] = tested on: NCI-H322M lung
[24] = tested on: HT29 colon
[25] = tested on: NCI-H522 lung
[26] = tested on: NCI-H23 lung
[27] = tested on: RXF 393 renal
[28] = tested on: OVCAR-3 ovarian
[29] = tested on: TK-10 renal
[30] = tested on: COLO 205 colon
[31] = tested on: MOLT-4 leukemia
[32] = tested on: RPMI-8226 leukemia
[33] = tested on: SK-MEL-28 melanoma
[34] = tested on: SNB-19 CNS
[35] = tested on: HL-60(TB) leukemia
[36] = tested on: SF-268 CNS
[37] = tested on: OVCAR-4 ovarian
[38] = tested on: SK-MEL-5 melanoma
[39] = tested on: SK-MEL-2 melanoma
[40] = tested on: HCC-2998 colon
[41] = tested on: NCI/ADR-RES ovarian
[42] = tested on: SF-295 CNS
[43] = tested on: UACC-257 melanoma
[44] = tested on: A549 NSCLC
[45] = tested on: SW-620 colon
[46] = tested on: EKVX NSCLC
[47] = tested on: MALME-3M melanoma
[48] = tested on: SN12C renal
[49] = tested on: KM12 colon
[50] = tested on: MCF7 breast
[51] = tested on: CCRF-CEM leukemia
[52] = tested on: SK-OV-3 ovarian
[53] = tested on: MDA-MB-468 breast
[54] = tested on: HOP-92 NSCLC
[55] = tested on: ACHN renal
[56] = tested on: SF-539 CNS
[57] = tested on: HS 578T breast
[58] = tested on: MDA-MB-231 breast
[59] = tested on: DU-145 prostate

With `C=CC(=O)Nc1cccc(C)c1Nc1ncc2cc(-c3c(Cl)c(OC)cc(OC)c3Cl)ccc2n1` the GI50 [1] was 1.29 µM, the TGI [1] was 5.33 µM and the GI50 [2] was 3.57 µM. For the same compound, the TGI [2] was 12.9 µM, the GI50 [3] was 0.775 µM and the TGI [3] was 2.34 µM. For the same compound, the GI50 [4] was 1.01 µM, the TGI [4] was 2.6 µM and the GI50 [5] was 0.843 µM. The TGI [5] was 2.44 µM, the GI50 [6] was 2.17 µM and the TGI [6] was 5.35 µM. The GI50 [7] was 1.12 µM, the TGI [7] was 3.8 µM and the GI50 [8] was 4.44 µM. For the same compound, the TGI [8] was over 100 µM, the GI50 [9] was 1.38 µM and the TGI [9] was 2.74 µM. It also gave a GI50 [10] of 1.39 µM, a TGI [10] of 3.21 µM and a GI50 [11] of 1.48 µM. For the same compound, the TGI [11] was 3 µM, the GI50 [12] was 0.717 µM and the TGI [12] was 2.09 µM. It also gave a GI50 [13] of 2.76 µM, a TGI [13] of 7.89 µM and a GI50 [14] of 2.06 µM. For the same compound, the TGI [14] was 13.6 µM, the GI50 [15] was 1.75 µM and the TGI [15] was 4.9 µM. The GI50 [16] was 2.23 µM, the TGI [16] was 6.74 µM and the GI50 [17] was 1.94 µM. It also gave a TGI [17] of 4.93 µM, a GI50 [18] of 1.73 µM and a TGI [18] of 3.89 µM. For the same compound, the GI50 [19] was 1.52 µM, the TGI [19] was 3.74 µM and the GI50 [20] was 0.348 µM. The TGI [20] was 1.54 µM, the GI50 [21] was 1.11 µM and the TGI [21] was 6.08 µM. It also gave a GI50 [22] of 0.614 µM, a TGI [22] of 2.03 µM and a GI50 [23] of 2.63 µM. It also gave a TGI [23] of 9.02 µM, a GI50 [24] of 2.44 µM and a TGI [24] of 9.75 µM. It also gave a GI50 [25] of 1.3 µM, a TGI [25] of 3.01 µM and a GI50 [26] of 1.84 µM. For the same compound, the TGI [26] was 5.12 µM, the GI50 [27] was 0.573 µM and the TGI [27] was 1.97 µM. For the same compound, the GI50 [28] was 1.1 µM, the TGI [28] was 2.94 µM and the GI50 [29] was 1.98 µM. It also gave a TGI [29] of 5.92 µM, a GI50 [30] of 2.01 µM and a TGI [30] of 12.2 µM. The GI50 [31] was 0.736 µM, the TGI [31] was 2.13 µM and the GI50 [32] was 0.276 µM. It also gave a TGI [32] of 1.26 µM, a GI50 [33] of 2.59 µM and a TGI [33] of 8.3 µM. It also gave a GI50 [34] of 2 µM, a TGI [34] of 7.72 µM and a GI50 [35] of 1.1 µM. The TGI [35] was 2.38 µM, the GI50 [36] was 1.55 µM and the TGI [36] was 3.81 µM. It also gave a GI50 [37] of 2.78 µM, a TGI [37] of 14.3 µM and a GI50 [38] of 1.46 µM. It also gave a TGI [38] of 3.38 µM, a GI50 [39] of 0.894 µM and a TGI [39] of 2.2 µM. For the same compound, the GI50 [40] was 2 µM, the TGI [40] was 4.83 µM and the GI50 [41] was 2.03 µM. The TGI [41] was 4.95 µM, the GI50 [42] was 2.77 µM and the TGI [42] was 10.5 µM. It also gave a GI50 [43] of 1.18 µM, a TGI [43] of 3.35 µM and a GI50 [44] of 2.12 µM. It also gave a TGI [44] of 7.94 µM, a GI50 [45] of 2.05 µM and a TGI [45] of 6.31 µM. For the same compound, the GI50 [46] was 1.84 µM, the TGI [46] was 4.55 µM and the GI50 [47] was 2.53 µM. The TGI [47] was 9.94 µM, the GI50 [48] was 2.33 µM and the TGI [48] was 7.56 µM. It also gave a GI50 [49] of 1.93 µM, a TGI [49] of 5.2 µM and a GI50 [50] of 1.37 µM. It also gave a TGI [50] of over 100 µM, a GI50 [51] of 1.34 µM and a TGI [51] of 2.65 µM. For the same compound, the GI50 [52] was 1.69 µM, the TGI [52] was 17 µM and the GI50 [53] was 0.207 µM. It also gave a TGI [53] of 1.6 µM, a GI50 [54] of 2.25 µM and a TGI [54] of 6.44 µM. It also gave a GI50 [55] of 2.93 µM, a TGI [55] of 23.7 µM and a GI50 [56] of 0.615 µM. The TGI [56] was 1.93 µM, the GI50 [57] was 1.26 µM and the TGI [57] was 3.18 µM. For the same compound, the GI50 [58] was 1.89 µM and the TGI [58] was 5.64 µM.
With `Cc1c(F)c(N)c2c(=O)cc(-c3ccc(NC(=O)[C@@H](N)CCCCN)c(F)c3)oc2c1F` the GI50 [1] was 9.12 µM, the TGI [1] was 21.3 µM and the GI50 [2] was 2.86 µM. It also gave a TGI [2] of 6.82 µM, a GI50 [3] of 9.12 µM and a TGI [3] of 21.5 µM. The GI50 [4] was 13.3 µM, the TGI [4] was 26.1 µM and the GI50 [5] was 5.47 µM. The TGI [5] was 17.9 µM, the GI50 [6] was 3.27 µM and the TGI [6] was 8.1 µM. The GI50 [8] was 0.046 µM, the TGI [8] was 12 µM and the GI50 [9] was 10.2 µM. It also gave a TGI [9] of 21.9 µM, a GI50 [10] of 1.09 µM and a TGI [10] of 2.85 µM. For the same compound, the GI50 [11] was 6.35 µM, the TGI [11] was 19.5 µM and the GI50 [12] was 0.37 µM. It also gave a TGI [12] of 2.03 µM, a GI50 [13] of 0.0154 µM and a TGI [13] of 0.0561 µM. For the same compound, the GI50 [14] was 1.52 µM, the TGI [14] was 19.5 µM and the GI50 [15] was 0.618 µM. For the same compound, the TGI [15] was 16 µM, the GI50 [16] was 11.1 µM and the TGI [16] was 23.1 µM. The GI50 [59] was 12.5 µM, the TGI [59] was 25 µM and the GI50 [17] was 8.41 µM. It also gave a TGI [17] of 20.6 µM, a GI50 [18] of 1.01 µM and a TGI [18] of 2.57 µM. For the same compound, the GI50 [19] was 1.26 µM, the TGI [19] was 2.6 µM and the GI50 [20] was 1.52 µM. For the same compound, the TGI [20] was 2.89 µM, the GI50 [21] was 0.0195 µM and the TGI [21] was 0.128 µM. It also gave a GI50 [22] of 0.0368 µM, a TGI [22] of 0.182 µM and a GI50 [23] of 9.87 µM. For the same compound, the TGI [23] was 21.5 µM, the GI50 [24] was 13.2 µM and the TGI [24] was 26 µM. For the same compound, the GI50 [25] was 4.75 µM, the TGI [25] was 18.6 µM and the GI50 [27] was 8.49 µM. For the same compound, the TGI [27] was 20.7 µM, the GI50 [29] was 0.13 µM and the TGI [29] was 12.6 µM. The GI50 [30] was 6.39 µM, the TGI [30] was 18 µM and the GI50 [31] was 1.57 µM. It also gave a TGI [31] of 2.91 µM, a GI50 [32] of 0.804 µM and a TGI [32] of 3.31 µM. For the same compound, the GI50 [33] was 13.4 µM, the TGI [33] was 26.2 µM and the GI50 [34] was 11.3 µM. It also gave a TGI [34] of 23.4 µM, a GI50 [35] of 0.878 µM and a TGI [35] of 15.4 µM. It also gave a GI50 [36] of 6.37 µM, a TGI [36] of 18.9 µM and a GI50 [37] of 8.64 µM. It also gave a TGI [37] of 21 µM, a GI50 [38] of 0.378 µM and a TGI [38] of 12.4 µM. The GI50 [39] was 2.98 µM, the TGI [39] was 11.9 µM and the GI50 [40] was 11.7 µM. The TGI [40] was 24 µM, the GI50 [41] was 12.7 µM and the TGI [41] was 25.3 µM. For the same compound, the GI50 [43] was 0.285 µM, the TGI [43] was 0.884 µM and the GI50 [44] was 1.72 µM. The TGI [44] was 17.1 µM, the GI50 [45] was 2.56 µM and the TGI [45] was 11.5 µM. The GI50 [47] was 4.61 µM, the TGI [47] was 12.1 µM and the GI50 [48] was 10.3 µM. It also gave a TGI [48] of 22 µM, a GI50 [49] of 2.31 µM and a TGI [49] of 5.46 µM. For the same compound, the GI50 [50] was 0.0266 µM, the TGI [50] was 0.146 µM and the GI50 [51] was 1.6 µM. It also gave a TGI [51] of 3.08 µM, a GI50 [52] of 3.17 µM and a TGI [52] of 12 µM. It also gave a TGI [53] of 0.0175 µM, a GI50 [54] of 4.95 µM and a TGI [54] of 15.7 µM. The GI50 [55] was 11.2 µM, the TGI [55] was 23.3 µM and the GI50 [56] was 2.27 µM. The TGI [56] was 4.54 µM, the GI50 [58] was 5.54 µM and the TGI [58] was 17.4 µM.
